Data published in PubChem BioAssay AID330 (DTP/NCI, 2004).
Where “and” joins values, the source holds several entries; their conditions need not be identical. Equal entries are not always repeated. Inconclusive results and toxic doses are left out.

System: P388 leukemia ip, CD2F1 mice, survival T/C
Assay: NCI In Vivo Anticancer Drug Screen. Data for tumor model P388 Leukemia (intraperitoneal) in CD2F1 (CDF1) mice
Details: endpoint: median survival time, higher = longer survival
Procedure, shortened: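 Mice carrying the transplanted tumor received test compound or vehicle. Survival was recorded in each group, and the value is the treated-group measurement divided by that of the vehicle-treated control group.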

[1] = dose: 100.0 mg/kg/injection, schedule: Q04DX003 (ip), vehicle: saline with Tween-80
[2] = dose: 200.0 mg/kg/injection, schedule: Q04DX003 (ip), vehicle: saline with Tween-80
[3] = dose: 400.0 mg/kg/injection, schedule: Q04DX003 (ip), vehicle: saline with Tween-80
[4] = dose: 100.0 mg/kg/injection, schedule: Q04DX002 (ip), vehicle: saline with Tween-80
[5] = dose: 200.0 mg/kg/injection, schedule: Q04DX002 (ip), vehicle: saline with Tween-80
[6] = dose: 400.0 mg/kg/injection, schedule: Q04DX002 (ip), vehicle: saline with Tween-80

`c1ccc(C2=NCC(c3ccccc3)(C3(c4ccccc4)SCCCS3)O2)cc1` (stereo unspecified) was tested, and the T/C [1] was 95 % of control, the T/C [2] was 97 % of control and the T/C [3] was 91 % of control.
With `CCN1CC2(COC)CCC(OC)C34C5CC6C(OC)CC(O)(C5C6O)C(O)(C(OC)C23)C14` (stereo unspecified) the T/C (dose: 3.75 mg/kg/injection, schedule: Q01DX005 (ip), vehicle: saline + alcohol) was 96 % of control, the T/C (dose: 7.5 mg/kg/injection, schedule: Q01DX005 (ip), vehicle: saline + alcohol) was 100 % of control and the T/C (dose: 15.0 mg/kg/injection, schedule: Q01DX005 (ip), vehicle: saline + alcohol) was 102 % of control. The T/C (dose: 30.0 mg/kg/injection, schedule: Q01DX005 (ip), vehicle: saline + alcohol) was 92 % of control and the T/C (dose: 60.0 mg/kg/injection, schedule: Q01DX005 (ip), vehicle: saline + alcohol) was 99 % of control.
`CC12CC3(C)CC(C)(C1)CC(C(Cl)C(=O)O)(C2)C3` (stereo unspecified) was tested, and the T/C (dose: 25.0 mg/kg/injection, schedule: Q01DX009 (ip), vehicle: suspension in saline) was 98 % of control and the T/C (dose: 50.0 mg/kg/injection, schedule: Q01DX009 (ip), vehicle: suspension in saline) was 100 % of control.
With `O=C1CSC(c2ccco2)N1CCN1C(=O)CSC1c1ccco1` (stereo unspecified) the T/C [4] was 100 % of control, the T/C [5] was 98 % of control and the T/C [6] was 91 % of control.
For `O=C(CCCCCCCCc1ccc(O)cc1)c1c(O)cccc1O`, the T/C (dose: 6.5 mg/kg/injection, schedule: Q01DX009 (ip), vehicle: Klucel (hydroxypropylcellulose) (HPC)) was 101 % of control, the T/C (dose: 13.0 mg/kg/injection, schedule: Q01DX009 (ip), vehicle: Klucel (hydroxypropylcellulose) (HPC)) was 108 % of control and the T/C (dose: 26.0 mg/kg/injection, schedule: Q01DX009 (ip), vehicle: Klucel (hydroxypropylcellulose) (HPC)) was 95 % of control. For the same compound, the T/C (dose: 52.0 mg/kg/injection, schedule: Q01DX009 (ip), vehicle: Klucel (hydroxypropylcellulose) (HPC)) was 105 % of control.
In the case of `Clc1cc2[nH]ccc2c(Cl)n1`, the T/C (dose: 50.0 mg/kg/injection, schedule: Q01DX001 (ip), vehicle: saline with Tween-80) is reported as 90 % of control and the T/C (dose: 100.0 mg/kg/injection, schedule: Q01DX001 (ip), vehicle: saline with Tween-80) is reported as 92 % of control.
For `CCOc1c(Cc2ccccc2)c(=O)n2c3ccccc3n(CC)c2c1C#N`, the T/C (dose: 7.5 mg/kg/injection, schedule: Q01DX005 (ip), vehicle: saline with Tween-80) was 100 % of control, the T/C (dose: 15.0 mg/kg/injection, schedule: Q01DX005 (ip), vehicle: saline with Tween-80) was 102 % of control and the T/C (dose: 30.0 mg/kg/injection, schedule: Q01DX005 (ip), vehicle: saline with Tween-80) was 101 % of control.
In the case of `Cc1cc2ccccc2c2c(C)c3cccc[n+]3cc12`, the T/C (dose: 6.25 mg/kg/injection, schedule: Q04DX003 (ip), vehicle: other) is reported as 114 % of control, the T/C (dose: 12.5 mg/kg/injection, schedule: Q04DX003 (ip), vehicle: other) is reported as 110 % of control and the T/C (dose: 25.0 mg/kg/injection, schedule: Q04DX003 (ip), vehicle: other) is reported as 110 % of control.
In the case of `COc1ccc(-c2n[nH]c(-c3ccc(OC)cc3)c2N=Nc2ccc(S(=O)(=O)Nc3nnc(C)s3)cc2)cc1`, the T/C [4] is reported as 103 % of control, the T/C [5] is reported as 103 % of control and the T/C [6] is reported as 94 % of control.
With `COC(=O)C1OC(SC(=N)N)C(OC(C)=O)C(OC(C)=O)C1OC(C)=O` (stereo unspecified) the T/C (dose: 12.5 mg/kg/injection, schedule: Q01DX009 (ip), vehicle: water) was 101 % of control, the T/C (dose: 25.0 mg/kg/injection, schedule: Q01DX009 (ip), vehicle: water) was 109 % of control and the T/C (dose: 50.0 mg/kg/injection, schedule: Q01DX009 (ip), vehicle: water) was 107 % of control and 117 % of control.
For `CC(/C=N\Nc1ccc(Cl)cc1)=N/NC(N)=S`, the T/C (dose: 100.0 mg/kg/injection, schedule: Q04DX002 (ip), vehicle: saline) was 99 % of control and the T/C (dose: 200.0 mg/kg/injection, schedule: Q04DX002 (ip), vehicle: saline) was 98 % of control.
With `c1ccc2c(c1)nc1n2CC2(CS1)CSc1nc3ccccc3n1C2` the T/C (dose: 50.0 mg/kg/injection, schedule: Q01DX009 (ip), vehicle: saline with Tween-80) was 88 % of control and the T/C (dose: 100.0 mg/kg/injection, schedule: Q01DX009 (ip), vehicle: saline with Tween-80) was 91 % of control.
For `O=C(/C=N/O)Nc1cccnc1`, the T/C (dose: 50.0 mg/kg/injection, schedule: Q01DX009 (ip), vehicle: Klucel (hydroxypropylcellulose) (HPC)) was 109 % of control, the T/C (dose: 100.0 mg/kg/injection, schedule: Q01DX009 (ip), vehicle: Klucel (hydroxypropylcellulose) (HPC)) was 109 % of control and the T/C (dose: 200.0 mg/kg/injection, schedule: Q01DX009 (ip), vehicle: Klucel (hydroxypropylcellulose) (HPC)) was 109 % of control.
In the case of `Cc1ccc(Cl)cc1NC(=O)COc1ccc(Cl)cc1Cl`, the T/C [1] is reported as 100 % of control, the T/C [2] is reported as 100 % of control and the T/C [3] is reported as 90 % of control.
